Experimental data from patent US8476255B2, “Histone deacetylase inhibitors” (Orchid Chemicals & Pharmaceuticals Limited, priority 2007, dated 2013).
pIC50: −log10 of the molar value.

Assays:
[1] = system: NCIH460, HCT116 and U251 cells; test: Anti-cancer screen, mean GI50 over cell lines; format: cell-based; conditions: mean over cell lines; read-out: Cell growth inhibition Mean GI50
Summary of the method: (§1)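 5×10^4 cells/mL, DMEM + 10% FBS, 24 h attach, 37 °C/5% CO2. Cpds 0.01–100 μM (5 conc., triplicate), 48 h. MTT 3 h → DMSO → A570; T0 plate read at dosing.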

NCIH460 (lung) cells = test: Anti-cancer screen (MTT), NCIH460; format: cell-based; conditions: Homo sapiens, NCI-H460, NCIH460, 48 hours, MTT; for GI50: read-out: Cell growth inhibition NCIH460 (Lung) GI50; for LC50: read-out: Cell growth inhibition NCIH460 (Lung) LC50; for IC (TGI): read-out: Cell growth inhibition NCIH460 (Lung) TGI
Summary of the method: as §1

[2] = system: HDAC (Mouse Liver Extract); test: HDAC inhibition assay using Boc-Lys(Ac)-AMC substrate; format: biochemical; conditions: mouse liver enzyme
Summary of the method: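 Released AMC measured at 360 nm excitation, 460 nm emission after 15-30 min trypsin development at 37° C. Preceding deacetylation: mouse liver extract with acetylated-lysine AMC substrate, 30 min at 37° C after 5-min preincubation; blanks were buffer alone and substrate alone.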

HCT 116 (colon) cells = test: Anti-cancer screen (MTT), HCT 116; format: cell-based; conditions: Homo sapiens, HCT-116, HCT116, 48 hours, MTT; for GI50: read-out: Cell growth inhibition HCT116 (Colon) GI50; for CC50: read-out: Cell growth inhibition HCT116 (Colon) LC50; for IC (TGI): read-out: Cell growth inhibition HCT116 (Colon) TGI
Summary of the method: as §1

U251 (glioma) cells = test: Anti-cancer screen (MTT), U251; format: cell-based; conditions: Homo sapiens, U-251, U251, 48 hours, MTT; for GI50: read-out: Cell growth inhibition U251 (Glioma) GI50; for LC50 (concentration giving 50% net cell kill relative to the time-zero cell count): read-out: Cell growth inhibition U251 (Glioma) LC50; for IC (TGI): read-out: Cell growth inhibition U251 (Glioma) TGI
Summary of the method: as §1

| Compound | GI50 [1] | GI50 (NCIH460 (lung) cells) | LC50 (NCIH460 (lung) cells) | IC (TGI) (NCIH460 (lung) cells) | HDAC inhibition % (1 μM) [2] | HDAC inhibition % (10 μM) [2] | GI50 (HCT 116 (colon) cells) | CC50 (HCT 116 (colon) cells) | IC (TGI) (HCT 116 (colon) cells) | GI50 (U251 (glioma) cells) | LC50 (concentration giving 50% net cell kill relative to the time-zero cell count) (U251 (glioma) cells) | IC (TGI) (U251 (glioma) cells) | pIC50 [2] |
| --- | --- | --- | --- | --- | --- | --- | --- | --- | --- | --- | --- | --- | --- |
| COC(=O)c1ccc(/C=C(/C(=O)NCc2ccc(C(=O)Nc3ccccc3N)cc2)c2ccc(OC)cc2)cc1 [Compound 35, N-(2-Aminophenyl)-4-((3-(4-carbmethoxyphenyl)-2-(4-methoxyphenyl)acrylamido)methyl)benzamide] | 2 µM | > 100 µM | > 100 µM | > 100 µM | 24.8% | 41.1% | 2 µM | > 100 µM | > 100 µM | > 100 µM | > 100 µM | > 100 µM |  |
| COC(=O)c1ccc(/C=C(/C(=O)NCc2ccc(C(=O)Nc3ccccc3N)cc2)c2cccs2)cc1 [Compound 36, N-(2-Aminophenyl)-4-((3-(4-carbmethoxyphenyl)-2-(thiophen-2-yl)acrylamido)methyl)benzamide] | 12.9 µM | 20 µM | > 100 µM | > 100 µM | 30.5% | 31.9% | 0.7 µM | > 100 µM | 35 µM | 18 µM | 90 µM | 50 µM |  |
| COc1ccc(/C=C(/C(=O)NCc2ccc(C(=O)Nc3ccccc3N)cc2)c2cccs2)cc1OC [Compound 37, N-(2-Aminophenyl)-4-((3-(3,4-dimethoxyphenyl)-2-(thiophen-2-yl)acrylamido)methyl)benzamide] | 1.9 µM | 2 µM | 100 µM | 6 µM | 31.7% | 59.9% | 1.1 µM | 80 µM | 6 µM | 2.6 µM | 51 µM | 7 µM | 5.30 |
| COC(=O)c1ccc(/C=C(/C(=O)NCc2ccc(C(=O)Nc3ccccc3N)cc2)c2ccc(F)c(F)c2)cc1 [Compound 38, N-(2-Aminophenyl)-4-((3-(4-carbmethoxyphenyl)-2-(3,4-difluorophenyl)acrylamido)methyl)benzamide] | 23.8 µM | 50 µM | > 100 µM | > 100 µM | 20.6% | 34.9% | 6.5 µM | > 100 µM | 80 µM | 15 µM | > 100 µM | 70 µM |  |
| COc1ccc(/C=C(/C(=O)NCc2ccc(C(=O)Nc3ccccc3N)cc2)c2ccccc2)c(OC)c1 [Compound 39, N-(2-Aminophenyl)-4-((3-(2,4-dimethoxyphenyl)-2-phenylacrylamido)methyl)benzamide] | 2.4 µM | 3.2 µM | > 100 µM | > 100 µM | 9.1% | 18.9% | 0.7 µM | > 100 µM | 80 µM | 3.2 µM | > 100 µM | 100 µM |  |
| COc1ccc(/C(=C\c2ccc(F)cc2)C(=O)NCc2ccc(C(=O)NO)cc2)cc1 [Compound 49, 4-((2-(4-Methoxyphenyl)-3-(4-fluorophenyl)acrylamido)methyl)-N-hydroxybenzamide] | 9.2 µM | 19 µM | 89 µM | 52.5 µM | 45.5% | 69.7% | 3.3 µM | 66 µM | 9 µM | 5.4 µM | 81 µM | 34.5 µM | 6.48 |
| O=C(NCc1ccc(C(=O)NO)cc1)/C(=C/c1ccc(F)cc1)c1ccc(C(F)(F)F)cc1 [Compound 50, 4-((2-(4-Trifluoromethyllphenyl)-3-(4-fluorophenyl)acrylamido)methyl)-N-hydroxybenzamide] | 34.3 µM | 38 µM | 92 µM | 69 µM | 50.1% | 87.1% | 22 µM | 88 µM | 55 µM | 43 µM | 87 µM | 72 µM |  |
| O=C(NCc1ccc(C(=O)NO)cc1)/C(=C/c1ccc(F)cc1)c1ccccc1 [Compound 51, 4-((2-(Phenyl)-3-(4-fluorophenyl)acrylamido)methyl)-N-hydroxybenzamide] | 12.5 µM | 24 µM | 86 µM | 60 µM | 74.5% | 90.8% | 7.5 µM | 83 µM | 36 µM | 6 µM | 72 µM | 48 µM |  |
| CSc1ccc(/C=C(/C(=O)NCc2ccc(C(=O)NO)cc2)c2ccc(F)cc2)cc1 [Compound 52, 4-((2-(4-Fluorophenyl)-3-(4-methylthiophenyl)acrylamido)methyl)-N-hydroxybenzamide] | 9.2 µM | 12 µM | 82 µM | 53 µM | 83.5% | 95.7% | 5.6 µM | 69 µM | 9.6 µM | 10 µM | 75 µM | 54 µM | 7.22 |
| COc1ccc(/C=C(/C(=O)NCc2ccc(C(=O)NO)cc2)c2ccc(F)cc2)cc1 [Compound 53, 4-((2-(4-Fluorophenyl)-3-(4-methoxyphenyl)acrylamido)methyl)-N-hydroxybenzamide] | 3.8 µM | 5.5 µM | 49 µM | 20 µM | 88.6% | 94.4% | 3 µM | 51 µM | 17 µM | 2.9 µM | 30 µM | 7 µM | 7.40 |
| O=C(NCc1ccc(C(=O)NO)cc1)/C(=C/c1c(F)cc(F)cc1F)c1ccc(F)cc1 [Compound 54, 4-((2-(4-Fluorophenyl)-3-(2,4,6-trifluorophenyl)acrylamido)methyl)-N-hydroxybenzamide] | 10.5 µM | 8 µM | 68 µM | 24 µM | 67.5% | 89.8% | 4.4 µM | 59 µM | 20 µM | 19 µM | 64 µM | 25 µM |  |
| CSc1ccc(/C=C(/C(=O)NCc2ccc(C(=O)NO)cc2)c2ccccc2Cl)cc1 [Compound 56, 4-((2-(2-Chlorophenyl)-3-(4-methylthiophenyl)acrylamido)methyl)-N-hydroxybenzamide] | > 100 µM | > 100 µM | > 100 µM | > 100 µM | 7.7% | 8.0% | > 100 µM | > 100 µM | > 100 µM | 0.1 µM | > 100 µM | 0.1 µM |  |
| CSc1ccc(/C=C(/C(=O)NCc2ccc(C(=O)NO)cc2)c2ccsc2)cc1 [Compound 59, 4-((2-(Thiophen-3-yl)-3-(4-methylthiophenyl)acrylamido)methyl)-N-hydroxybenzamide] | 2.3 µM | 2.3 µM | 30 µM | 7 µM | 76.6% | 96.3% | 3 µM | 60 µM | 15 µM | 1.5 µM | 65 µM | 5.5 µM | 7.52 |
| COc1cc(/C=C(/C(=O)NCc2ccc(C(=O)NO)cc2)c2ccc(F)cc2)ccc1F [Compound 60, 4-((2-(4-Fluorophenyl)-3-(4-fluoro-3-methoxyphenyl)acrylamido)methyl)-N-hydroxybenzamide] | 17.3 µM | 25 µM | 80 µM | 50 µM | 66.6% | 95.0% | 10 µM | 81 µM | 50 µM | 17 µM | 99 µM | 38 µM |  |
